PubChem BioAssay (NCI)
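How tested: cells in 96-well plates exposed to compound for 48 hours at five concentrations. GI50 = concentration required for 50% inhibition of growth. TGI denotes the concentration required for complete inhibition of growth.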

Assays:
Experiment in all cases: DTP human tumour cell line panel, 48 h
[1] = system: RXF 393 renal
[2] = system: IGROV1 ovarian
[3] = system: HCC-2998 colon
[4] = system: NCI-H522 lung
[5] = system: EKVX NSCLC
[6] = system: MCF7 breast
[7] = system: T-47D breast
[8] = system: U251 CNS
[9] = system: HL-60(TB) leukemia
[10] = system: SF-295 CNS
[11] = system: MALME-3M melanoma
[12] = system: 786-0 renal
[13] = system: A549 NSCLC
[14] = system: MOLT-4 leukemia
[15] = system: KM12 colon
[16] = system: CAKI-1 renal
[17] = system: NCI-H460 lung
[18] = system: HT29 colon
[19] = system: PC-3 prostate
[20] = system: HS 578T breast
[21] = system: HOP-92 NSCLC
[22] = system: ACHN renal
[23] = system: SR leukemia
[24] = system: UACC-257 melanoma
[25] = system: HCT-15 colon
[26] = system: SN12C renal
[27] = system: TK-10 renal
[28] = system: CCRF-CEM leukemia
[29] = system: SK-MEL-2 melanoma

COc1ccc(/C(=N\NC(N)=S)c2ccc(Cl)cc2)cc1OC
GI50 [1]: 1.94 µM | TGI [1]: 7.26 µM | GI50 [2]: 4.11 µM | TGI [2]: 20.4 µM | GI50 [3]: 4.36 µM | TGI [3]: 16.5 µM | GI50 [4]: 1.37 µM | TGI [4]: 4.62 µM | GI50 [5]: 4.95 µM | TGI [5]: 28.3 µM | GI50 [6]: 3.12 µM | TGI [6]: 15.5 µM | GI50 [7]: 3.16 µM | TGI [7]: 25 µM | GI50 [8]: 3.71 µM | TGI [8]: 15.4 µM | GI50 [9]: 1.77 µM | TGI [9]: 8.05 µM | GI50 [10]: 3.56 µM | TGI [10]: 14.2 µM | GI50 [11]: 3.54 µM | TGI [11]: 19.2 µM | GI50 [12]: 7.54 µM | TGI [12]: 23.1 µM | GI50 [13]: 5.94 µM | TGI [13]: 32.3 µM | GI50 [14]: 4.91 µM | TGI [14]: 29.2 µM | GI50 [15]: 3.56 µM | TGI [15]: 19.4 µM | GI50 [16]: 3.28 µM | TGI [16]: 17.1 µM | GI50 [17]: 3.58 µM | TGI [17]: 13 µM | GI50 [18]: 2.69 µM | TGI [18]: 9.48 µM | GI50 [19]: 3.76 µM | TGI [19]: 20.1 µM | GI50 [20]: 2.77 µM | TGI [20]: 13.8 µM | GI50 [21]: 4.67 µM | TGI [21]: 17.4 µM | GI50 [22]: 5.89 µM | TGI [22]: 29.2 µM | GI50 [23]: 2.43 µM | TGI [23]: > 39.7 µM | GI50 [24]: 8.13 µM | TGI [24]: 26.2 µM | GI50 [25]: 2.06 µM | TGI [25]: 15.6 µM | GI50 [26]: 4.63 µM | TGI [26]: 18.5 µM | GI50 [27]: 11.1 µM | TGI [27]: 31.6 µM | GI50 [28]: 2.63 µM | TGI [28]: 16.6 µM | GI50 [29]: 1.67 µM | TGI [29]: 4.67 µM
